{"source": "patent US8618151B2", "about": "“Inhibitors of HCV NS5A” (Presidio Pharmaceuticals, Inc., priority 2008, dated 2013)", "data": [{"system": "HCV genotype 1b replicon", "test": "HCV replicon assay (1b_Huh-Luc/Neo-ET cell line, luciferase readout)", "type": "cell-based", "conditions": "Hepatitis C virus, Huh-7, 72 h, read-out: Inhibition of HCV genotype 1b", "how_it_was_run": "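1b_Huh-Luc/Neo-ET Huh 7 cells carrying a bicistronic genotype 1b replicon; compounds added in triplicate the day after plating, 72 h incubation, then Bright-Glo luciferase read-out. Signal expressed as % of control; EC50 from curve fit, repeated several times.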", "units": {"EC50": "nM"}, "values": [{"smiles": "COC(=O)N[C@H](C(=O)N1CCC[C@H]1c1nc(-c2ccc3c(c2)CCN(c2c(F)cc(-c4cnc([C@@H]5CCCN5C(=O)[C@@H](NC(=O)OC)C5CC5)[nH]4)cc2F)C3)c[nH]1)C1CC1", "note": "[compound 271]", "EC50": "< 1"}, {"smiles": "COC(=O)N[C@@H](C)C(=O)N1CCC[C@H]1c1nc(-c2ccc3c(c2)CCN(c2c(F)cc(-c4cnc([C@@H]5CCCN5C(=O)[C@H](C)NC(=O)OC)[nH]4)cc2F)C3)c[nH]1", "note": "[compound 272]", "EC50": "< 1"}, {"smiles": "COC(=O)N[C@@H](C)C(=O)N1CCC[C@H]1c1nc(-c2ccc3nc(N4CCC(c5cnc([C@@H]6CCCN6C(=O)[C@H](C)NC(=O)OC)[nH]5)CC4)ccc3c2)c[nH]1", "note": "[compound 273]", "EC50": "1 to 9.9"}, {"smiles": "COC(=O)N[C@H](C(=O)N1CCC[C@H]1c1nc(-c2ccc3nc(N4CCC(c5cnc([C@@H]6CCCN6C(=O)[C@@H](NC(=O)OC)C6CC6)[nH]5)CC4)ccc3c2)c[nH]1)C1CC1", "note": "[compound 274]", "EC50": "1 to 9.9"}, {"smiles": "COC(=O)N[C@H](C(=O)N1CCC[C@H]1c1nc(-c2ccc3nc(N4CCC(c5cnc([C@@H]6CCCN6C(=O)[C@@H](NC(=O)OC)C(C)C)[nH]5)CC4)ccc3c2)c[nH]1)C(C)C", "note": "[compound 275]", "EC50": "< 1"}, {"smiles": "COC(=O)N[C@H](C(=O)N1CCC[C@H]1c1nc2ccc(-c3ccc4cc(-c5ccc6nc([C@@H]7CCCN7C(=O)[C@@H](NC(=O)OC)C(C)C)[nH]c6c5)ccc4c3)cc2[nH]1)C(C)C", "note": "[compound 276]", "EC50": "< 1"}, {"smiles": "COC(=O)N[C@H](C(=O)N1CCC[C@H]1c1nc2ccc(-c3cccc4c(-c5ccc6nc([C@@H]7CCCN7C(=O)[C@@H](NC(=O)OC)C(C)C)[nH]c6c5)cccc34)cc2[nH]1)C(C)C", "note": "[compound 277]", "EC50": "< 1"}, {"smiles": "COC(=O)N[C@@H](C)C(=O)N1CCC[C@H]1c1nc2ccc(-c3ccc4cc(-c5ccc6nc([C@@H]7CCCN7C(=O)[C@H](C)NC(=O)OC)[nH]c6c5)ccc4c3)cc2[nH]1", "note": "[compound 278]", "EC50": "< 1"}, {"smiles": "COC(=O)N[C@H](C(=O)N1CCC[C@H]1c1nc2ccc(-c3ccc4cc(-c5ccc6nc([C@@H]7CCCN7C(=O)[C@@H](NC(=O)OC)C7CCOCC7)[nH]c6c5)ccc4c3)cc2[nH]1)C1CCOCC1", "note": "[compound 279]", "EC50": "< 1"}, {"smiles": "COC(=O)N[C@H](C(=O)N1CCC[C@H]1c1nc2ccc(-c3ccc4nc(-c5ccc6nc([C@@H]7CCCN7C(=O)[C@@H](NC(=O)OC)C(C)C)[nH]c6c5)ccc4c3)cc2[nH]1)C(C)C", "note": "[compound 280]", "EC50": "< 1"}, {"smiles": "COC(=O)N[C@H](C(=O)N1CCC[C@H]1c1nc2ccc(-c3ccc4cc(-c5ccc6nc([C@@H]7CCCN7C(=O)[C@@H](NC(=O)OC)C(C)C)[nH]c6c5)ncc4c3)cc2[nH]1)C(C)C", "note": "[compound 281]", "EC50": "< 1"}, {"smiles": "COC(=O)N[C@H](C(=O)N1CCC[C@H]1c1nc2ccc(-c3ccc4cc(-c5ccc6nc([C@@H]7CCCN7C(=O)[C@@H](NC(=O)OC)C7CCOCC7)[nH]c6c5)ccc4c3)cc2[nH]1)C(C)C", "note": "[compound 282]", "EC50": "< 1"}, {"smiles": "COC(=O)N[C@H](C(=O)N1CCC[C@H]1c1nc2ccc(-c3ccc4cc(-c5ccc6nc([C@@H]7CCCN7C(=O)[C@H](NC(=O)OC)c7ccccc7)[nH]c6c5)ccc4c3)cc2[nH]1)C(C)C", "note": "[compound 283]", "EC50": "< 1"}, {"smiles": "COC(=O)N[C@@H](C(=O)N1CCC[C@H]1c1nc(-c2ccc3nc(C4CCC(c5cnc([C@@H]6CCCN6C(=O)[C@H](NC(=O)OC)c6ccccc6)[nH]5)CC4)ccc3c2)c[nH]1)c1ccccc1", "note": "(stereo partly drawn) [compound 286]", "EC50": "< 1"}, {"smiles": "COC(=O)N[C@H](C(=O)N1CCC[C@H]1c1nc(-c2ccc3c(=O)n(-c4ccc(-c5cnc([C@@H]6CCCN6C(=O)[C@@H](NC(=O)OC)C(C)C)[nH]5)cc4)ccc3c2)c[nH]1)C(C)C", "note": "[compound 287]", "EC50": "< 1"}, {"smiles": "COC(=O)N[C@@H](C(=O)N1CCC[C@H]1c1nc(-c2ccc3c(=O)n(-c4ccc(-c5cnc([C@@H]6CCCN6C(=O)[C@H](NC(=O)OC)c6ccccc6)[nH]5)cc4)ccc3c2)c[nH]1)c1ccccc1", "note": "[compound 288]", "EC50": "< 1"}, {"smiles": "COC(=O)N[C@@H](C(=O)N1CCC[C@H]1c1nc(-c2ccc3c(c2)CCN(c2ccc(-c4cnc([C@@H]5CCCN5C(=O)[C@H](NC(=O)OC)c5ccccc5)[nH]4)cc2)C3=O)c[nH]1)c1ccccc1", "note": "[compound 289]", "EC50": "< 1"}, {"smiles": "COC(=O)N[C@H](C(=O)N1CCC[C@H]1c1ncc(-c2ccc(N3Cc4cc(-c5cnc([C@@H]6CCCN6C(=O)[C@@H](NC(=O)OC)C(C)C)[nH]5)ccc4C3=O)cc2)[nH]1)C(C)C", "note": "[compound 290]", "EC50": "< 1"}, {"smiles": "COC(=O)N[C@H](C(=O)N1CCC[C@H]1c1nc(C2CNc3cc(-c4ccc(-c5cnc([C@@H]6CCCN6C(=O)[C@H](NC(=O)OC6CCOCC6)c6ccccc6)[nH]5)cc4)ccc3C2)c[nH]1)C(C)C", "note": "(stereo partly drawn) [compound 291]", "EC50": "< 1"}, {"smiles": "COC(=O)N[C@H](C(=O)N1CCC[C@H]1c1ncc(-c2ccc3cc(-c4ccc5c(c4)CCc4nc([C@@H]6CCCN6C(=O)[C@@H](NC(=O)OC)C(C)C)[nH]c4-5)ncc3c2)[nH]1)C(C)C", "note": "[compound 292]", "EC50": "< 1"}, {"smiles": "COC(=O)N[C@H](C(=O)N1CCC[C@H]1c1nc2c([nH]1)-c1ccc(-c3cc4ccc(-c5cnc([C@@H]6CCCN6C(=O)[C@@H](NC(=O)OC)C6CCOCC6)[nH]5)cc4cn3)cc1CC2)C(C)C", "note": "[compound 293]", "EC50": "< 1"}, {"smiles": "COC(=O)N[C@H](C(=O)N1CCC[C@H]1c1nc2c([nH]1)-c1ccc(-c3cc4ccc(-c5cnc([C@@H]6CCCN6C(=O)[C@H](NC(=O)OC)c6ccccc6)[nH]5)cc4cn3)cc1CC2)C(C)C", "note": "[compound 294]", "EC50": "< 1"}, {"smiles": "COC(=O)N[C@H](C(=O)N1CCC[C@H]1c1nc2c([nH]1)-c1ccc(-c3cc4ccc(-c5cnc([C@@H]6CCCN6C(=O)[C@H](NC(=O)OC6CCOCC6)c6ccccc6)[nH]5)cc4cn3)cc1CC2)C(C)C", "note": "[compound 295]", "EC50": "< 1"}, {"smiles": "COC(=O)N[C@H](C(=O)N1CCC[C@H]1c1ncc(-c2ccc3nc(-c4ccc5c(ccc6nc([C@@H]7CCCN7C(=O)[C@@H](NC(=O)OC)C(C)C)[nH]c65)c4)ccc3c2)[nH]1)C(C)C", "note": "[compound 296]", "EC50": "< 1"}, {"smiles": "COC(=O)N[C@H](C(=O)N1CCC[C@H]1c1nc2ccc3cc(-c4ccc5cc(-c6cnc([C@@H]7CCCN7C(=O)[C@@H](NC(=O)OC)C7CCOCC7)[nH]6)ccc5n4)ccc3c2[nH]1)C(C)C", "note": "[compound 297]", "EC50": "< 1"}, {"smiles": "COC(=O)N[C@H](C(=O)N1CCC[C@H]1c1nc2ccc3cc(-c4ccc5cc(-c6cnc([C@@H]7CCCN7C(=O)[C@H](NC(=O)OC)c7ccccc7)[nH]6)ccc5n4)ccc3c2[nH]1)C(C)C", "note": "[compound 298]", "EC50": "< 1"}, {"smiles": "COC(=O)N[C@H](C(=O)N1CCC[C@H]1c1nc2ccc3cc(-c4ccc5cc(-c6cnc([C@@H]7CCCN7C(=O)[C@H](NC(=O)OC7CCOCC7)c7ccccc7)[nH]6)ccc5n4)ccc3c2[nH]1)C(C)C", "note": "[compound 299]", "EC50": "< 1"}]}]}
